Results reported in paper PMC8744746 (International Journal of Molecular Sciences, 2021).
pEC50: −log10 of the molar value. Several values for one entry are separate records, joined by “and”; a condition that tells them apart may be missing. Equal entries are not always repeated. Entries after “also recorded” stand apart in the source; their conditions may differ. Where two headings read alike, the source gives them in different places.

Key:
HFF cell microtubules = test: Tubulin immunofluorescence and SFEX quantification of vertebrate microtubules; type: cell-based, human; details: at or above the EC50 for oryzalin, clemastine, astemizole; versus vehicle control
in vitro = details: human
Experimental: Because replicating cells may be more vulnerable than confluent monolayers, we evaluated survival of both subconfluent (dividing) and confluent (contact-inhibited) HFF cultures after 72 h of exposure to increasing drug concentrations (Supplemental Figure S4). […] Using this information, we calculated the in vitro therapeutic index for these drugs, which is the ratio of the CC50 to the EC50.
For subconfluent monolayers, approximately 5 × 10^4 HFF cells were plated into each well of a 24-well dish and exposed to D10+ media alone or D10+ with DMSO or drug for 3 days. The plates were processed with the In Vitro Toxicology Assay Kit, MTT based (Sigma Aldrich, TOX1), and A570 was measured in a SpectraMax I3X plate reader. Exported data were analyzed using Microsoft Excel. For confluent monolayers, approximately 5 × 10^4 HFF cells were plated into each well of a 24-well dish and grown in D10+ media alone. Once the cells were confluent, they were gently rinsed with PBS, and D10+ with DMSO or drug was added to each well. The plates were processed as above.

[1] = test system: Toxoplasma tachyzoite subpellicular microtubules; test: Subpellicular microtubule length in deoxycholate-extracted tachyzoites (ImageJ); type: cell-based, Toxoplasma gondii; details: drug-treated tachyzoites versus vehicle controls
Experimental: In parallel, we assessed the effect of these candidate tubulin-targeting agents on parasite microtubules, also via tubulin immunofluorescence. Because tachyzoite subpellicular microtubules are unusually resistant to detergent extraction due to the association of SPM1 and other stabilizing luminal proteins, these structures can be specifically isolated for analysis. Vehicle- and drug-treated parasites were incubated with deoxycholate, and the extracted subpellicular microtubule arrays were detected with tubulin immunofluorescence (Figure 4A). Images of parasite microtubules were measured using ImageJ.
To measure the length distribution of Toxoplasma tachyzoite subpellicular microtubules in control and treated parasites, we isolated subpellicular microtubule complexes by deoxycholate extraction of freshly lysed tachyzoites. Briefly, RH parasites were treated with DMSO or candidate drugs in culture for 2 days. Following lysis of host cells, extracellular parasites were centrifuged at 1000× g for 20 min at 4 °C and then resuspended in 1 mL of PBS. Parasites were settled onto poly-l-lysine (Sigma)-coated coverslips for 15 min at room temperature. Coverslips were incubated with 10 mg/mL deoxycholate (DOC) in phosphate-buffered saline (PBS) for 10 min to extract the subpellicular microtubule cytoskeleton. Samples were fixed in 3.7% formyl saline (Sigma) at room temperature for 10–15 min, followed by immunostaining for tubulin, as described above. Extracted subpellicular microtubules in immunofluorescence images were measured using ImageJ.

RH-GFP T. gondii = details: GFP-expressing parasites per vacuole, tracked up to 36 h
Excerpt: To live image replicating parasites, we used a GFP-expressing Toxoplasma line [29] for invasion assays and replication assays. […] Next, we assessed the effects of the drugs on replication. By adding drug to infected cells after initiating parasite invasion, this assay measures replication independent of any effects on invasion. This methodology may also reveal details induced by drug treatment that are not resolved by the plaque assay, such as changes in parasite shape or acute replication delays. We enumerated the number of GFP-expressing parasites in individual vacuoles at 12-hour intervals over one complete lytic cycle.
HFF cells were grown to confluency in 35 mm coverslip dishes (MatTek, Ashland MA, USA). RH-GFP T. gondii [29] were harvested by filtering freshly lysed parasites. Parasites were diluted 4-fold in D10+ media. After 30 min of invasion at 37 °C, the cell monolayer was washed with PBS to remove extracellular parasites. D10+ media alone, D10+ with DMSO, or drug in DMSO was added to the dishes. Actively growing parasites in fibroblasts were imaged every 12 h over a 48-hour period using a Zeiss Axiovert 200 M and an Axiovision camera to collect 10 random fields of view for each condition. Parasite replication states were manually quantified and tallied to enumerate singlets, doublets, quadruplets, and larger rosettes.

[2] = test system: Toxoplasma RH strain tachyzoites; test: microbe, parasite or virus in culture; details: 168 h, read-out: EC50, Toxoplasma RH Strain, plaque area relative to control after 7 days in HFF monolayers
Experimental: (§1) To assess this, we gauged the therapeutic index by measuring compound EC50 for Toxoplasma tachyzoites grown in vertebrate host cells versus the CC50 for uninfected human foreskin fibroblast (HFF) cells. […] After 1 week of parasite growth, we visualized lytic destruction of crystal violet-stained host cells to reveal macroscopic plaques in the monolayer (Figure 2B). Greyscale images of individual wells were analyzed with the open-source program ImageJ [18] using the “threshold” functionality to differentiate between cells (dark gray) and plaques (white). The program calculates plaque number, average size, and percent total area within the field. The EC50 value is determined by graphing the relationship between compound concentrations and percent total plaque area relative to control cultures. […] HFF cells were grown to confluency in 6-well dishes and infected with 300 tachyzoites/well. Individual wells were treated with varying concentrations of drug, and the plates were left undisturbed for 7 days at 37 °C in a humidified 5% CO2 incubator. […] Greyscale photographic images of the plates were analyzed in ImageJ (NIH, Bethesda, MD, USA) using the “threshold” functionality. Plaque number, average size and percent total area were calculated by the program. […]

RH-GFP parasites = type: cell-based, Toxoplasma gondii; details: drugs at their EC50 concentrations, clemastine +/− pretreatment
Experimental: The red-green invasion assay using GFP-expressing tachyzoites was adapted from the original protocol. HFF cells were grown to confluency on coverslips in 6-well dishes. RH-GFP parasites were harvested from infected host cells by syringe passage through a 27-gauge needle. Tachyzoites were allowed to adhere to host cells for 20 min at 37 °C in a high-potassium “Endo” buffer. The buffer was replaced with warm invasion medium (DMEM + various drug conditions). Parasite invasion occurred under control or drug-treated conditions for 3 min (short invasion time) or 30 min (long invasion time) at 37 °C in a humidified 5% CO2 incubator. After invasion, samples were washed with PBS, fixed with formyl saline without subsequent permeabilization, stained with mouse anti-SAG1 antibody (Invitrogen, Waltham, MA, USA: D61S, 1:1000), and detected with a goat anti-mouse secondary antibody conjugated to Alexa Fluor 594 (Invitrogen A11005, 1:1000). Extracellular, invading, and intracellular parasites were scored from 10 random microscope fields. Invasion was calculated by dividing the number of intracellular parasites by the total number of parasites counted.

[3] = test system: Toxoplasma RH strain tachyzoites; details: read-out: EC50, Toxoplasma RH Strain; plaque area relative to control after 7 days in HFF monolayers
Experimental: as §1

[4] = test system: α-tubulin in T. gondii tachyzoites; test: Immunoblot quantification of α-tubulin protein in tachyzoites; type: cell-based, Toxoplasma gondii; details: clemastine-treated tachyzoites (8 μM in Figure 4D); DMSO control 0.022
Excerpt: Parasite equivalents and known concentrations of porcine tubulin standards were resolved by SDS-PAGE for subsequent immunoblot analysis using a broadly cross-reacting α-tubulin monoclonal antibody that recognizes both vertebrate and Toxoplasma tubulin. Band intensity was quantified with ImageJ, and the porcine samples were used to create a standard curve to determine α-tubulin concentration in Toxoplasma samples normalized to parasite equivalents.
The samples were resolved on a 10% SDS-polyacrylamide gel (Bio-Rad) and blotted to nitrocellulose for immunoblot analysis. Blots were probed with a mouse anti-α-tubulin antibody (Sigma T9026; 1:5000) and detected with an IgG anti-mouse secondary antibody conjugated to HRP (Promega, Madison, WI, USA: W4021, 1:10,000). Samples were imaged using a Nikon D700 fitted with a 55 mm f/1.4 Nikkor auto-focus lens and intervening 12 mm Kenko auto-focus extension tube [46]. Exposure times were controlled with a Satechi TRC-B remote shutter control. Band intensity was quantified using ImageJ.

Toxoplasma = test system: Toxoplasma; parameters: method as in PMID 28609444; details: cited from earlier work

| Compound | Effect on vertebrate (HFF) microtubules, in words (HFF cell microtubules) | Effect on Toxoplasma subpellicular microtubule length, in words [1] | Effect on tachyzoite replication (RH-GFP T. gondii) | Effect on tachyzoite invasion (RH-GFP parasites) | other results |
| --- | --- | --- | --- | --- | --- |
| COc1ccc(CCN2CCC(Nc3nc4ccccc4n3Cc3ccc(F)cc3)CC2)cc1 [Astemizole] | do not significantly differ from the vehicle control | smaller but significant decreases in filament length; also recorded: small but significant decrease in microtubule length | No delays in replication are detected at 36 hours; also recorded: did not detect overt slowing of replication | does not affect invasion | CC50 at 72 h (in vitro; HFF CC50 confluent): 18 µM; CC50 at 72 h (in vitro; HFF CC50 subconfluent): 8.83 µM; pEC50 [2]: ~5.70; pEC50 [3]: 5.68 |
| CN1CCC[C@@H]1CCO[C@](C)(c1ccccc1)c1ccc(Cl)cc1 [Clemastine] |  |  | No delays in replication are detected at 36 hours; also recorded: did not detect overt slowing of replication | does not affect invasion | α-tubulin (pg)/tachyzoite [4]: 0.02 pg/tachyzoite and ~ 0.02 pg/tachyzoite |
| COc1ccc(/C=C\c2cc(OC)c(OC)c(OC)c2)cc1O [Combretastatin A4, combretastatin A4] | dose-dependent microtubule disassembly |  |  |  |  |
| CCc1nc(N)nc(N)c1-c1ccc(Cl)cc1 [Pyrimethamine] |  | does not reduce microtubule length |  |  | Effect on Toxoplasma subpellicular microtubule length, in words ([1]; listed as pyrimethamine): not different to that of the vehicle controls |
| OCCOCCN1CCN(C(c2ccccc2)c2ccc(Cl)cc2)CC1 (stereo not shown) [hydroxyzine] |  |  |  |  | pEC50 (Toxoplasma): 6.00 |
| Parabulin |  | significant reduction in microtubule length; also recorded: significant microtubule shortening relative to control samples |  |  |  |
